In PMC6131563, “Talaropeptides A-D: Structure and Biosynthesis of Extensively N-methylated Linear Peptides From an Australian Marine Tunicate-Derived Talaromyces sp” (Frontiers in Chemistry, 2018) one finds IC50 data, which are given here for four compounds.

SMILES strings stand for the structures. Where two headings read alike, the source gives them in different places. Where a SMILES comes first, the peptide text is derived from it. [ ]: non-standard residue; d: D form. NMeF = CN[C@@H](Cc1ccccc1)C(=O)O; NMeI = CC[C@H](C)[C@H](NC)C(=O)O; NMeV = CN[C@H](C(=O)O)C(C)C; NMeA = CN[C@@H](C)C(=O)O Where only a bound is given, the exact number is not on record here.

One test relates to SW620. The test can be described thus: cells. The arrangement: MTT assay of cancer cell growth inhibition, absorbance at 580 nm. The conditions noted are these: Homo sapiens, SW-620, 48 h. How it is done: (§1) Adherent cell SW620 (human colorectal carcinoma) and NCI-H460 (human lung carcinoma) cells were cultured in Roswell Park Memorial Institute (RPMI) 1640 medium. All cells were cultured as adherent mono-layers in flasks supplemented with 10% fetal bovine serum, L–glutamine (2 mM), penicillin (100 unit/mL), and streptomycin (100 μg/mL), in a humidified 37°C incubator supplied with 5% CO2. Briefly, cells were harvested with trypsin and dispensed into 96-well microtiter assay plates at 3,000 cells/well, after which they were incubated for 18 h at 37°C with 5% CO2 (to allow cells to attach as adherent mono-layers). Test compounds were dissolved in 20% DMSO in PBS (v/v) and aliquots (10 μL) applied to cells over a series of final concentrations ranging from 10 nM to 30 μM. After 48 h incubation at 37°C with 5% CO2 an aliquot (20 μL) of 3-(4,5-dimethylthiazol-2-yl)-2,5-diphenyltetrazolium bromide (MTT) in phosphate buffered saline (PBS, 5 mg/mL) was added to each well (final concentration 0.5 mg/mL), and microtiter plates were incubated for a further 4 h at 37°C with 5% CO2. After final incubation, the medium was aspirated and precipitated formazan crystals dissolved in DMSO (100 μL/well). The absorbance of each well was measured at 580 nm with a PowerWave XS Microplate Reader from Bio-Tek Instruments Inc. Where relevant, IC50 values were calculated using Prism 7.0, as the concentration of analyte required for 50% inhibition of cancer cell growth (compared to negative controls). Negative control was 1% aqueous DMSO, while positive control was doxorubicin (30 μM). All experiments were performed in duplicate.

In another test the test system is NCI-H460. The test can be described thus: cells. Set-up: MTT assay of cancer cell growth inhibition, absorbance at 580 nm. The following applies: Homo sapiens, NCI-H460, 48 h. Here is the method: as §1
The subject of test [1] is Bacillus subtilis ATCC 6633. It is filed as cell-based. The following applies: ATCC 6633, 24 h.

Regarding `CC[C@H](C)[C@@H](C(=O)N[C@@H](CC(C)C)C(=O)O)N(C)C(=O)[C@H](Cc1ccccc1)N(C)C(=O)[C@H](C(C)C)N(C)C(=O)[C@H](C(C)C)N(C)C(=O)[C@@H]1CCCN1C(=O)[C@H](C(C)C)N(C)C(=O)[C@@H](NC(=O)[C@@H](NC(=O)[C@H](C(C)C)N(C)C(=O)[C@H](C)N(C)C(C)=O)C(C)C)[C@@H](C)O` [compound 4, talaropeptide C] (Ac-[NMeA][NMeV]VT[NMeV]P[NMeV][NMeV][NMeF][NMeI]L-OH), the IC50 in the test on SW620 (read-out: 4) and in the test on NCI-H460 (read-out: 4) was more than 30 µM in each case.
In the case of `CC[C@H](C)[C@@H](C(=O)N[C@@H](CC(C)C)C(=O)O)N(C)C(=O)[C@H](Cc1ccccc1)N(C)C(=O)[C@H](C(C)C)N(C)C(=O)[C@H](C(C)C)N(C)C(=O)[C@@H]1CCCN1C(=O)[C@H](C(C)C)N(C)C(=O)[C@@H](NC(=O)[C@@H](NC(=O)[C@@H](NC(=O)[C@H](C(C)C)N(C)C(=O)[C@H](C)NC)C(C)C)[C@@H](C)O)C(C)C` [compound 3, talaropeptide B] (H-[NMeA][NMeV]VTV[NMeV]P[NMeV][NMeV][NMeF][NMeI]L-OH), the IC50 was 3.7 µM in test [1], more than 30 µM in the test with SW620 (read-out: 3) and more than 30 µM in the test on NCI-H460 (read-out: 3).
For `CC[C@H](C)[C@@H](C(=O)N[C@@H](CC(C)C)C(=O)O)N(C)C(=O)[C@H](Cc1ccccc1)N(C)C(=O)[C@H](C(C)C)N(C)C(=O)[C@H](C(C)C)N(C)C(=O)[C@@H]1CCCN1C(=O)[C@H](C(C)C)N(C)C(=O)[C@@H](NC(=O)[C@@H](NC(=O)[C@@H](NC(=O)[C@H](C(C)C)N(C)C(=O)[C@H](C)N(C)C(C)=O)C(C)C)[C@@H](C)O)C(C)C` [compound 5, talaropeptide D] (Ac-[NMeA][NMeV]VTV[NMeV]P[NMeV][NMeV][NMeF][NMeI]L-OH), the IC50 in the test on SW620 (read-out: 5) and in the test with NCI-H460 (read-out: 5) was more than 30 µM in each case.
Turning to `CC[C@H](C)[C@@H](C(=O)N[C@@H](CC(C)C)C(=O)O)N(C)C(=O)[C@H](Cc1ccccc1)N(C)C(=O)[C@H](C(C)C)N(C)C(=O)[C@H](C(C)C)N(C)C(=O)[C@@H]1CCCN1C(=O)[C@H](C(C)C)N(C)C(=O)[C@@H](NC(=O)[C@@H](NC(=O)[C@H](C(C)C)N(C)C(=O)[C@H](C)NC)C(C)C)[C@@H](C)O` [compound 2, talaropeptide A] (H-[NMeA][NMeV]VT[NMeV]P[NMeV][NMeV][NMeF][NMeI]L-OH), the IC50 in test [1] was 1.5 µM; in the test on SW620 (read-out: 2), more than 30 µM; in the test with NCI-H460 (read-out: 2), more than 30 µM.
